Test: Cooling intensity: panelists taste aqueous solutions, compared with menthol at 2 ppm
Assay type: in vivo, human
Conditions: tasted by a small group of panelists

SMILES: Cc1nc2ccccc2n1CCc1ccccc1 [Example 1, 2-methyl-1-phenethyl-1H-benzo[d]imidazole]
- Concentration with a cooling intensity similar to or slightly higher than that of a solution of menthol at 2 ppm: 0.03 ppm

SMILES: COc1ccc(CCn2c(C)nc3ccccc32)cc1 [Example 2, 1-(4-methoxyphenethyl)-2-methyl-1H-benzo[d]imidazole]
- Concentration with a cooling intensity similar to or slightly higher than that of a solution of menthol at 2 ppm: 0.1 ppm

SMILES: CC1CCC(C(C)C)C(O)C1 (stereo not shown) [I-Menthol, I-menthol]
- Concentration with a cooling intensity similar to or slightly higher than that of a solution of menthol at 2 ppm: 2.0 ppm

SMILES: CCNC(=O)C1CC(C)CCC1C(C)C (stereo not shown) [WS-3, N-ethyl p-menthanecarboxamide]
- Concentration with a cooling intensity similar to or slightly higher than that of a solution of menthol at 2 ppm: 1.5 ppm
